Assay results reported in patent publication US9840494B2, “Quinazoline derivative” (Tianjin Hemay Oncology Pharmaceutical Co., Ltd., priority 2013, dated 2017).
Marks after values point to notes of the source that are not given here.

Columns and labels:
EGFR = molecular target: T1, EGFR (Homo sapiens, UniProt P00533); assay: Inhibitory effect on tyrosine kinase activity of EGFR; format: biochemical; conditions: EGFR 40 ng/ml, ATP 10 μM, 30 min
T1 construct: purchased Invitrogen Company PV3872
Procedure: EGFR: Invitrogen Company, Catalogue No. PV3872
pGT (poly(glutamic acid-tyrosine)): Sigma-Aldrich Company, Catalogue No. P0275
The assay method is briefly described as follows.
3.1.1 At 4° C., 96-well microtiter plate was coated with 0.2 mg/mL pGT (as the substrate of enzyme) dissolved in PBS (phosphate buffer) overnight. Unbound pGT was washed away with a washing solution (0.05% Tween −20 in PBS), and the plate was dried in the air at room temperature for 2 h.
3.1.2 The enzyme reaction was performed in 50 μl reaction system containing 50 mM HEPEs (N-(2-hydroxyethyl)piperazine-N′-2-ethanesulfonic acid), pH 7.5, 0.01% BRIJ-35 (polyoxyethylene lauryl ether), 10 mM MgCl2, 1 mM EGTA (ethylene glycol bis(2-aminoethyl ether)tetraacetic acid), with certain concentrations of ATP (adenosine triphosphate) and kinase, and proceeded for 30 min at room temperature. The phosphate group at the terminal of ATP can be transferred to tyrosine residues of pGT by kinase catalysis so as to phosphorylate the tyrosine residues.
3.1.3 A final concentration of 1% SDS (sodium dodecyl sulfate) was added to terminate the reaction. The phosphorylated tyrosine residues were identified using pY-20. HRP at the end of the antibody enabled TMB to take on color. Then equal amount of 2 N H2SO4 was added to terminate the reaction. OD value, which is positively correlated with the phosphorylation degree of tyrosine residues of pGT, was measured at 450 nm
3.2 The concentrations of the kinase and substrate ATP were determined with reference to the literature “Optimization of a LanthaScreen Kinase assay for EGFR (ErbB1)”(https://tools.lifetechnologies.com/content/sfs/manuals/EGFR_LanthaScreen_actity_Europium.pdf), published by Invitrogen Corporation. The selection criteria for the final concentrations are that the concentration of kinase enabling the yield of the product within the linear range of the detection system and the concentration of ATP approching Km (Michaelis constant) value.
3.3.1 An appropriate amount of a compound was dissolved in DMSO (dimethylsulfoxide) to prepare 2 mM stock solution. Then the stock solution was diluted with DMSO to obtain a working solution with a 50-fold concentration of the highest test concentration, and subjected to a 4-fold gradient dilution to obtain seven concentrations in total.
5 μl 10-fold concentration of ATP dissolved in H2O (the concentration of ATP in EGFR assay is 100 μM, and in Her2 assay is 400 μM) was added to initiate the enzyme reaction followed by reaction at room temperature for 30 min
The mean value of inhibition rate and SD (standard deviation) were determined by duplicate wells. A curve with the concentration of the compound as abscissa and being in logarithmic distribution and the mean value of inhibition rate as ordinate was plotted and fitted using four-parameter logistic function.

[1] = Bioavailability assay in rats, Experiment II (dihydrobromide); format: in vivo; conditions: Wistar rats
[2] = tested on: FaDu human head and neck cancer xenograft; assay: FaDu human head and neck cancer xenograft model; format: in vivo, nude mice; conditions: FaDu xenograft, 50 mg/kg intragastric daily for 14 days
Procedure: (§1) Tumor cells were cultured in an incubator at 37° C. with 5% CO2 using MEM medium containing 10% inactivated fetal calf serum, 100 U/ml penicillin and 100 μg/ml streptomycin. The tumor cells in logarithmic growth phase were collected, adjusted to an appropriate density and injected subcutaneously into nude mice (0.2 ml per mouse). An xenograft model was established after tumor was formed in the nude mice and passaged in vivo for more than three generations.
(§2) The above-mentioned tumor-bearing mice were sacrificed by cervical dislocation. The tumor was taken out and cut into small tumor pieces (about 2 mm×2 mm×2 mm) under sterile conditions. The small tumor pieces were inoculated subcutaneously into nude mice on the right shoulder blade with a trocar. […] The animals in each group were subjected to intragastric administration daily for 14 consecutive days. The day of grouping is assigned as day 0.
(§3) Tumor volume is calculated as: volume=0.5×long diameter×short diameter^2. The relative tumor volume (RTV) was calculated based on the measurements as: RTV=Vt/V0, wherein V0 is the tumor volume measured when the animals were grouped to be administrated (i.e., d0), and Vt is the tumor volume when each measurement was taken. Relative tumor proliferation rate T/C was calculated based on relative tumor volume, in which T is the mean value of the relative tumor volume of the treatment group, and C is the mean value of the relative tumor volume of the solvent control group. T/C was calculated as follows: T/C=TRTV/CRTV×100% (TRTV: RTV of the treatment group; CRTV: RTV of the solvent control group) Inhibition rate (%)=(mean tumor weight of the solvent control group−mean tumor weight of the treatment group)/mean tumor weight of the solvent control group×100%. Percentage of body weight change=Wn/W0×100% (Wn: mean body weight of experimental animals in each group at day n, W0: mean body weight of experimental animals in each group at day 0).
(§4) One-Way ANOVA test was conducted in SPSS13.0, performing statistical analysis between groups.

[3] = tested on: A431 human epidermal carcinoma xenograft; assay: A431 human epidermal carcinoma xenograft model; format: in vivo, nude mice; conditions: A431 xenograft, 50 mg/kg intragastric once a day for 14 days
Procedure: as §1, with “µg/ml” for “μg/ml”, “after a” for “after”
as §2, with “mice” for “mice on the right shoulder blade”, “once a day” for “daily”
Tumor volume is calculated as: volume =0.5×long diameter×short diameter^2. The relative tumor volume (RTV) was calculated based on the measurements as: RTV=Vt/V0, wherein V0 is the tumor volume measured when the animals were grouped to be administrated (i.e., d0), and Vt is the tumor volume when each measurement was taken. Relative tumor proliferation rate T/C was calculated based on relative tumor volume, in which T is the mean value of the relative tumor volume of the treatment group, and C is the mean value of the relative tumor volume of the solvent control group. T/C was calculated as follows: T/C=TRTV/CRTV×100% (TRTV: RTV of the treatment group; CRTV:
RTV of the solvent control group) Inhibition rate (%)=(mean tumor weight of the solvent control group−mean tumor weight of the treatment group)/mean tumor weight of the solvent control group×100%. Percentage of body weight change=Wn/W0×100% (Wn: mean body weight of experimental animals in each group at day n, W0: mean body weight of experimental animals in each group at day 0).
as §4

[4] = tested on: HCC827 human non-small cell lung cancer xenograft; assay: HCC827 human non-small cell lung cancer xenograft model; format: in vivo, nude mice; conditions: HCC827 xenograft, 50 mg/kg intragastric daily for 14 days
Procedure: as §1, with “after a” for “after”
as §2
as §3, with “group x 100%.” for “group×100%.”
as §4

[5] = 20 mg/kg tail intravenous injection
[6] = both sexes, rat, plasma, po, 20 mg/kg intragastric gavage
[7] = both sexes, rat, plasma, 20 mg/kg tail intravenous injection

COCCOc1cc2ncnc(Nc3ccc(F)c(Cl)c3)c2cc1NC(=O)C=C1CCN(CCOC)CC1 [Compound 6, N-[4-(3-chloro-4-fluorophenylamino)-7-(2-methoxyethoxy)quinazolin-6-yl]-2-[1-(2-methoxyethyl)piperidin-4-ylidene]acetamide dinitrate]
IC50 (EGFR): 0.6 nM

COCCOc1cc2ncnc(Nc3ccc(F)c(Cl)c3)c2cc1NC(=O)C=C1CCN(CCOC)CC1 [Compound 8, N-[4-(3-chloro-4-fluorophenylamino)-7-(2-methoxyethoxy)quinazolin-6-yl]-2-[1-(2-methoxyethyl)piperidin-4-ylidene]acetamide diphenylsulfonate]
IC50 (EGFR): 0.8 nM

COCCOc1cc2ncnc(Nc3ccc(F)c(Cl)c3)c2cc1NC(=O)C=C1CCN(CCOC)CC1 [Compound 9, N-[4-(3-chloro-4-fluorophenylamino)-7-(2-methoxyethoxy)quinazolin-6-yl]-2-[1-(2-methoxyethyl)piperidin-4-ylidene]acetamide difumarate]
IC50 (EGFR): 0.5 nM

COCCOc1cc2ncnc(Nc3ccc(F)c(Cl)c3)c2cc1NC(=O)C=C1CCN(CCOC)CC1 [Compound 10, N-[4-(3-chloro-4-fluorophenylamino)-7-(2-methoxyethoxy)quinazolin-6-yl]-2-[1-(2-methoxyethyl)piperidin-4-ylidene]acetamide dimaleate]
IC50 (EGFR): 0.3 nM

COCCOc1cc2ncnc(Nc3ccc(F)c(Cl)c3)c2cc1NC(=O)C=C1CCN(CCOC)CC1 [Compound 11, N-[4-(3-chloro-4-fluorophenylamino)-7-(2-methoxyethoxy)quinazolin-6yl]-2-[1-(2-methoxyethyl)piperidin-4-ylidene]acetamide di(p-toluenesulfonate)]
IC50 (EGFR): 0.4 nM

Br.Br.COCCOc1cc2ncnc(Nc3ccc(F)c(Cl)c3)c2cc1NC(=O)C=C1CCN(CCOC)CC1 [Example 5, N-[4-(3-chloro-4-fluorophenylamino)-7-(2-methoxyethoxy)quinazolin-6-yl]-2-[1-(2-methoxyethyl)piperidin-4-ylidene]acetamide dihydrobromide]
CLz/F ([1]; 20 mg/kg intragastric gavage): 66.48 mL/min/kg
t½z ([1]; 20 mg/kg intragastric gavage): 5.564 h
CLz [1, 5]: 25.8 mL/min/kg
t½z [1, 5]: 5.514 h
bioavailability ([1]; both sexes, rat, plasma, oral, 20 mg/kg ig vs 20 mg/kg iv): 42.8%
AUC(0-inf) [1, 6]: 5550 ng·h/mL
AUC(0-t) [1, 6]: 5240 ng·h/mL
Cmax [1, 6]: 368 ng/mL
Tmax [1, 6]: 6 h
Vd/F ([1]; both sexes, rat, plasma, po, 20 mg/kg intragastric gavage, read-out: Vz/F): 30.1 L/kg
AUC(0-inf) [1, 7]: 13000 ng·h/mL
AUC(0-t) [1, 7]: 12700 ng·h/mL
Cmax [1, 7]: 3240 ng/mL
Tmax [1, 7]: 0.083 h
Vd ([1]; both sexes, rat, plasma, 20 mg/kg tail intravenous injection, read-out: Vz): 12.2 L/kg

C#Cc1cccc(Nc2ncnc3cc(OCCOC)c(OCCOC)cc23)c1 [Tarceva, reference compound]
Tumor Weight (x ± S.D.) [2]: 0.650 ± 0.267 g
Tumor Inhibitor Rate ([2]; by tumor weight): 40.6%
T/C ([2]; end of the assay): 59.9%
Tumor Volume (x ± S.D.) ([2]; end of the assay): 709.9 ± 274.9** mm^3
Tumor Weight (x ± S.D.) [3]: 0.281 ± 0.252 g
Tumor Inhibitor Rate ([3]; by tumor weight): 62.0%
T/C ([3]; end of the assay): 47.3%
Tumor Volume (x ± S.D.) ([3]; end of the assay): 498.9 ± 263.4** mm^3
Tumor Weight (x ± S.D.) [4]: 0.067 ± 0.055 g
T/C ([4]; end of the assay): 5.0%
Tumor Volume (x ± S.D.) ([4]; end of the assay): 55.3 ± 46.3*** mm^3

N-[4-(3-chloro-4-fluorophenylamino)-7-(2-methoxyethoxy)quinazolin-6yl]-2-[piperidin-4-ylidene]acetamide disulfate [Compound 5]
IC50 (EGFR): 0.3 nM
